One data set deals with T1, OATP1B1 (Homo sapiens, UniProt Q9Y6L6).
T1 construct: expressed in transfected cells; host or cells: CHO cells (stably transfected; Treiber et al. 2007)
T1 sequence (Q9Y6L6 1-691): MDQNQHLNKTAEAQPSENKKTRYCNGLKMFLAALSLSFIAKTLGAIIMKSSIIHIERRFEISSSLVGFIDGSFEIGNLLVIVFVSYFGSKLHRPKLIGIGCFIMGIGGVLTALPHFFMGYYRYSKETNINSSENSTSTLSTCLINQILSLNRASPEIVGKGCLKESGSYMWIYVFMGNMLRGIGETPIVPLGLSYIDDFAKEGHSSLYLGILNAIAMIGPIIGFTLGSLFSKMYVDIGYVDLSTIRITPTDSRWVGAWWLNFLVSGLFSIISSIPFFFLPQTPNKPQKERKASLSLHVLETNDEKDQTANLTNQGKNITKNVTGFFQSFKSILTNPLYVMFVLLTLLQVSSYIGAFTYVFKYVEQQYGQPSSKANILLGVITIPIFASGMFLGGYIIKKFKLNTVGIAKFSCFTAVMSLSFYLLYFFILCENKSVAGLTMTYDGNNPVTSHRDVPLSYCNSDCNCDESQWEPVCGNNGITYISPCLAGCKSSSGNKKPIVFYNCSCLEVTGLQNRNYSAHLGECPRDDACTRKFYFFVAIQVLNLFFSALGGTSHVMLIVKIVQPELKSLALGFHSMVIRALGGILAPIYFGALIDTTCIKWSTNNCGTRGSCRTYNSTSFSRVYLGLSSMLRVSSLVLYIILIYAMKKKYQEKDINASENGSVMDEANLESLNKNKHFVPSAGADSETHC
In words: Uptake of CLF into CHO cells expressing OATP1B1. The class given is cell-based. As to conditions: 1 μmol/L CLF, 1 or 5 minutes. On the procedure:
cDNA for human NTCP [Hagenbuch et al., J Clin Invest 1994 March; 93(3): 1326-1331] was cut with EcoRV and HindI and the coding region ligated into pcDNA5/FRT (Invitrogen, Life-Technologies, Carlsbad, Calif.). CHO FlpIn cells (Invitrogen, Life-Technologies) were transfected with the resulting construct using Lipofectamine® 2000 (Invitrogen, Life-Technologies). Stably transfected cells were selected with 550 μg Hygromycin-B in HAM-F12 medium (Gibco, Invitrogen, Life-Technologies). Transfected cells were cloned with the limiting dilution method. […] To further characterize the cloned cells, immunofluorescence localization of NTCP using a polyclonal antibody against NTCP [Kullak-Ublick G et al., Gastroenterology 1997 October; 113(4):1295-1305] was performed as described by Huber R D et al. [Am J Physiol Cell Physiol 2007 February; 292(2):[…]-[…]]. CHO cells expressing OATP1B1, OATP1B3 and OATP2B1 were described previously [Treiber et al., DMD 35:1400-1407, 2007]. […] After complete solubilization, 1.5 ml was used to measure fluorescence in a Perkin-Elmer LS-5 luminescence-spectrometer set at λexe 486 nm (slit 10 nm) and λem 520 nm (slit 5 nm). Protein was determined with the bicinchoninic acid method using a kit from Interchim (Montfuçon, France). […]

In another data set the test system is Abcc2 and Abcc3. In words: Plasma clearance of CLF in wild type, Abcc2-/- and Abcc3-/- mice. The class given is in vivo. As to conditions: single injection of 100 μL 2 mmol/L CLF in the tail vein. As to the method:
Wild type, Abcc3^−/− and Abcc2^−/− mice received 100 μL of 2 mmol/L CLF by injection in the tail vein. After the indicated time points blood was drawn. Data are expressed as the mean percentage of the initial CLF level at 2 minutes. Significance was tested using two-sided Student's t-test: *P<0.05 for Abcc2−/− vs wild type mice.
Abcc2^−/− mice (against a Friend virus B-type (FVB) background) were bred at the National Cancer Institute (Amsterdam, The Netherlands). Production and characterization of the Abcc2^−/− mice was as described by Vlaming et al. [J Pharmacol Exp Ther 2006 July; 318(1):319-327]. Wild type and Abcc3^−/− mice (against an FVB background) were bred at the animal institute of the Academic Medical Center. Production and characterization of the Abcc3^−/− mice was as described by Zelcer et al. [J Hepatol 2006 April; 44(4):768-775].
Male mice were housed in a pathogen-free animal facility on a 12 hours light-dark cycle. Mice were anesthetized with a combination of Hypnorm (VetaPharma, UK; 11.8 mg/kg fluanisone and 0.37 mg/kg fentanyl-citrate) and diazepam (Centrafarm, Etten-Leur, The Netherlands; 5.9 mg/kg valium). Body temperature was maintained at 36±1° C. on thermostatted heating pads. […] Blood samples were deproteinised by addition of two volumes methanol and the amount CLF in the supernatant was quantitated by measurement of fluorescence as described above.

Each structure is given as a SMILES string.

For `CC(CCC(=O)NC(CCCCNC(=S)Nc1ccc(-c2c3ccc(=O)cc-3oc3cc(O)ccc23)c(C(=O)O)c1)C(=O)O)C1CCC2C3C(O)CC4CC(O)CCC4(C)C3CC(O)C12C` (stereo not drawn) [CLF, cholyl lysyl fluorescein], the “uptake of CLF into OATP1B1 cells” value on OATP1B1 is given as “very weak but consistent”. In addition, in the data set on Abcc2 and Abcc3, the “Plasma clearance of CLF in Abcc2-/- mice in comparison with wild type mice” value was “strongly impaired” and the “Plasma clearance of CLF in Abcc3-/- mice in comparison with wild type mice” value is on record as “not affected”.

(Values after patent publication US8318504B2, “MRP2 efflux pathway prognostic method” (priority 2009, dated 2012).)
